From ChEMBL document CHEMBL3632497, “Insights into Structure-Activity Relationships of Bacterial RNA Polymerase Inhibiting Corallopyronin Derivatives” (2015)
Converted amounts (≈) assume the structure as drawn. The source made the active and inactive calls. No cut-off for these calls is given here.

Tests used:
Bacillus licheniformis [1] = assay: Antibacterial activity against Bacillus licheniformis MW3 after 24 hrs; format: functional; conditions: MW3, 24 h
Staphylococcus simulans = assay: Antibacterial activity against Staphylococcus simulans 22 after 24 hrs; format: functional; conditions: Staphylococcus simulans, 22, 24 h
Escherichia coli = assay: Antibacterial activity against Escherichia coli; format: functional, organism-based
Priestia megaterium = assay: Antibacterial activity against Bacillus megaterium; format: functional
Wolbachia [2] = assay: Antibacterial activity against Wolbachia; format: functional
Mycolicibacterium phlei = assay: Antibacterial activity against Mycobacterium phlei after 24 hrs; format: functional
Staphylococcus aureus [3] = assay: Antibacterial activity against Staphylococcus aureus; format: functional
Micrococcus luteus = assay: Antibacterial activity against Micrococcus luteus ATCC 4698 after 24 hrs; format: functional; conditions: ATCC 4698, 24 h
Bacillus licheniformis [4] = assay: Antibacterial activity against Bacillus licheniformis DSM13 after 24 hrs; format: functional; conditions: DSM 13 = ATCC 14580, 24 h
Wolbachia [5] = assay: Antibacterial activity against Wolbachia infected in C6/36 cells assessed as decrease in 16s rRNA copies by qPCR analysis; format: functional, cell-based
Staphylococcus aureus [6] = assay: Antibacterial activity against Staphylococcus aureus SG511 after 24 hrs; format: functional; conditions: SG511, 24 h
[7] = tested on: Mycolicibacterium smegmatis; assay: Antibacterial activity against Mycobacterium smegmatis after 24 hrs; format: functional
Bacillus subtilis = assay: Antibacterial activity against Bacillus subtilis 168 after 24 hrs; format: functional; conditions: subsp. subtilis str. 168, 24 h
Bacillus cereus = assay: Antibacterial activity against Bacillus cereus after 24 hrs; format: functional
Wolbachia [8] = assay: Antibacterial activity against Wolbachia infected in C6/36 cells assessed as decrease in 16s rRNA copies at 0.01, 0.1 and 0.5 microg/ml by qPCR analysis; format: functional, cell-based

Row | Compound | MIC (Bacillus licheniformis [1]) [µg/mL] | MIC (Staphylococcus simulans) [µg/mL] | MIC (Mycolicibacterium phlei) [µg/mL] | also measured
1 | C/C=C/C/C=C(/C)C(=O)CC/C(C)=C/C=C(\C)C(=O)c1c(O)cc([C@H](C)CC/C=C/NC(=O)OC)oc1=O | 32 (≈ 60.9 µM) | 16 (≈ 30.4 µM) |  | 
2 | CCCCCCCCCCCCC/C=C/[C@@H](O)[C@H](CO)NC(=O)CCCCCCNC(=O)OC |  |  |  | Activity (Escherichia coli): inactive; Activity (Priestia megaterium): inactive; Activity (Wolbachia [2]): inactive
3 | C/C=C/C/C=C(/C)[C@@H](CC/C(C)=C/C=C(\C)C(=O)c1c(O)cc([C@H](C)CC/C=C/NC(=O)OC)oc1=O)OC(=O)CCCCCCCCC | 64 (≈ 93.9 µM) | > 64 |  | 
4 | C/C=C/C/C=C(/C)[C@@H](CC/C(C)=C/C=C(\C)C(=O)c1c(O)cc([C@H](C)CC/C=C/NC(=O)OC)oc1=O)OC(=O)COC(C)=O | > 64 | > 64 |  | 
5 | C/C=C/C/C=C(/C)C1CCC(C)(C/C=C(\C)C(=O)c2c(O)cc([C@H](C)CC/C=C/NC(=O)OC)oc2=O)O1 (some centres not stated) |  |  |  | MIC (Priestia megaterium): 1.6 µg/mL (≈ 3.03 µM); MIC (Staphylococcus aureus [3]): 0.4 µg/mL (≈ 0.758 µM)
6 | C/C=C/C/C=C(/C)C(O)CC/C(C)=C\C=C(/C)C(=O)c1c(O)cc([C@H](C)CC/C=C/NC(=O)OC)oc1=O (some centres not stated) |  |  |  | MIC (Priestia megaterium): 0.8 µg/mL (≈ 1.52 µM); MIC (Staphylococcus aureus [3]): 0.1 µg/mL (≈ 0.19 µM)
7 | CC/C=C/C/C=C(/C)[C@H](O)CC/C(C)=C/C=C(\C)C(=O)c1c(O)cc([C@H](C)CC/C=C/NC(=O)OC)oc1=O |  |  |  | MIC (Priestia megaterium): 1.6 µg/mL (≈ 2.95 µM); MIC (Staphylococcus aureus [3]): 0.4 µg/mL (≈ 0.738 µM)
8 | C/C=C/C/C=C(\C)C(O)CC/C(C)=C/C=C(\C)C(=O)c1c(O)cc([C@H](C)CC/C=C/NC(=O)OC)oc1=O (some centres not stated) [CORALLOPYRONIN A] | 64 (≈ 121 µM) | 1 (≈ 1.9 µM) | > 64 | MIC (Micrococcus luteus): 1 µg/mL (≈ 1.9 µM); MIC (Bacillus licheniformis [4]): 2 µg/mL (≈ 3.79 µM); inhibition (Wolbachia [5]): Dose-dependent effect; MIC (Staphylococcus aureus [6]): 0.5 µg/mL (≈ 0.948 µM); MIC [7]: > 64 µg/mL; MIC (Bacillus subtilis): 16 µg/mL (≈ 30.3 µM); MIC (Bacillus cereus): 2 µg/mL (≈ 3.79 µM)
9 | C/C=C/C/C=C(/C)CCC/C(C)=C/C=C(\C)C(=O)c1c(O)cc([C@H](C)CC/C=C/NC(=O)OC)oc1=O |  | 4 (≈ 7.82 µM) |  | MIC (Micrococcus luteus): 4 µg/mL (≈ 7.82 µM); MIC (Bacillus licheniformis [4]): 4 µg/mL (≈ 7.82 µM); inhibition (Wolbachia [8]): Active; MIC (Staphylococcus aureus [6]): 2 µg/mL (≈ 3.91 µM); MIC [7]: > 64 µg/mL; MIC (Bacillus subtilis): 32 µg/mL (≈ 62.5 µM); MIC (Bacillus cereus): 2 µg/mL (≈ 3.91 µM)

Continued, in another order:

Row | MIC (Bacillus licheniformis [1]) [µg/mL] | MIC (Staphylococcus simulans) [µg/mL] | MIC (Mycolicibacterium phlei) [µg/mL] | Compound | also measured
10 | 64 (≈ 101 µM) | > 64 | > 64 | C/C=C/C/C=C(/C)[C@@H](CC/C(C)=C/C=C(\C)C(=O)c1c(O)cc([C@H](C)CC/C=C/NC(=O)OC)oc1=O)OC(=O)c1ccccc1 | 
11 | > 64 | > 64 |  | C/C=C/C/C=C(/C)[C@@H](CC/C(C)=C/C=C(\C)C(=O)c1c(O)cc([C@H](C)CC/C=C/NC(=O)OC)oc1=O)OC(=O)c1ccc(F)cc1 | 
12 | > 64 | > 64 |  | C/C=C/C/C=C(/C)[C@@H](CC/C(C)=C/C=C(\C)C(=O)c1c(O)cc([C@H](C)CC/C=C/NC(=O)OC)oc1=O)OC(=O)c1cccs1 | 
13 | > 16 | 32 (≈ 43 µM) | > 64 | C/C=C/C/C=C(/C)[C@@H](CC/C(C)=C/C=C(\C)C(=O)c1c(O)cc([C@H](C)CC/C=C/NC(=O)OC)oc1=O)OC(=O)[C@](OC)(c1ccccc1)C(F)(F)F | 
14 | > 16 | 64 (≈ 86 µM) | > 64 | C/C=C/C/C=C(/C)[C@@H](CC/C(C)=C/C=C(\C)C(=O)c1c(O)cc([C@H](C)CC/C=C/NC(=O)OC)oc1=O)OC(=O)[C@@](OC)(c1ccccc1)C(F)(F)F | 
15 | 64 (≈ 103 µM) | 64 (≈ 103 µM) | > 64 | C/C=C/C/C=C(/C)[C@@H](CC/C(C)=C/C=C(\C)C(=O)c1c(O)cc([C@H](C)CC/C=C/NC(=O)OC)oc1=O)OC(=O)c1ccco1 | 
16 | 64 (≈ 112 µM) | 64 (≈ 112 µM) | > 64 | C/C=C/C/C=C(/C)[C@@H](CC/C(C)=C/C=C(\C)C(=O)c1c(O)cc([C@H](C)CC/C=C/NC(=O)OC)oc1=O)OC(C)=O | 
